From patent US8912144B2, “Method for treating stroke via administration of NEP1-40 and inosine” (Children's Medical Center Corporation, priority 2003, dated 2014)
Entries after “also recorded” stand apart in the source; their conditions may differ.

Key:
Type in all cases: in vivo, rat
[1] = system: C1q, C3, metallothionein; assay: Immunohistochemistry for C1q, C3 and metallothionein in layer 5 of the uninjured forelimb motor cortex; details: 7 days after stroke
Method: To investigate whether some of the changes seen in the microarray study translate into differences at the protein level, immunohistochemistry was performed for C1q, C3, and metallothionein (Study VII). […] Immunohistochemistry was used to investigate whether inosine-induced changes found at the mRNA level translate into changes at the protein level. Analyses were carried out in layer 5 of the uninjured forelimb motor cortex 7 days after a stroke was induced in the corresponding region of the contralateral hemisphere. Inosine induced changes in levels of complement proteins C1q (a) and C3 (b) and metallothionine (c).

[2] = system: corticospinal tract (CST) axons; assay: BDA tracing of CST axons in sham-operated animals (no brain injury); details: sham surgery, 4 weeks treatment
Method: In groups treated for four weeks after stroke, animals were re-anesthetized, the infusion needle and pump were removed, and a craniotomy was performed over the uninjured SMA. The anterograde tracer bioti-nylated dextran amine (BDA: Molecular Probes: 10% wt/vol in sterile saline) was injected stereotaxically at depths of 0.5, 1.0, and 2.0 mm below the cortical surface at 18 standardized points distributed over the sensorimotor cortex (70 nl per injection; Nano-ject, Drummond Scientific, Broomall, Pa.). Two weeks later, animals were anesthetized and perfused transcardially with 0.9% saline followed by 4% paraformaldehyde. The brain and spinal cord were dissected and post-fixed overnight in 4% paraformaldehyde, followed by 10% and 30% sucrose solutions over the next few days. Tissue was em-bedded in OCT Tissue Tek Medium (Sakura Finetek USA Inc., CA) and frozen on dry ice. […] Six to ten sections spanning a distance of 1.2 mm were examined and quantified for (a) BDA-labeled axon profiles ≧40 μm in length within the dorsal funiculus on the denervated side of the spinal cord (ipsilateral to the BDA injection and contralateral to the injury); (b) BDA+axons≧40 μm in length in the gray matter of the denervated side of the spinal cord, and (c) BDA+axons≧200 μm in length on the denervated side. […] Average numbers of axons were calculated and converted to axons per mm of spinal cord. […]

[3] = Skilled forelimb-reaching (food pellet retrieval) task after stroke; details: for food pellet retrieval with impaired paw, % of baseline: long-term study
Method: All procedures were carried out in accordance with NIH Guidelines with the approval of Children's Hospital Animal Care and Use Committee. Unilateral in-farcts were induced in the sensorimotor cortex of adult Sprague-Dawley rats (275-300 g; Charles River Laboratories, Wilmington, Mass.) using the photothrombotic model of focal ischemia (Markgraf et al., 1993). Briefly, rats were anesthetized with a combination of ketamine (75 mg/kg) and Domitor (medetomidine; 0.5 mg/kg) and a 15 mm skin incision was made at the midline rostral to the posterior suture. A craniotomy was performed over the sensorimotor cortex using a hand-held drill to open a window that spanned medio-laterally between the sagittal sinus and temporal ridge, and rostro-caudally between Bregma +2.5 mm and Bregma −3.5 mm. The photosensitive dye Rose Bengal was injected into the femoral vein, and a fiber-optic cable connected to a xenon light source was centered over the craniotomy, focusing light directly on the exposed region of the brain for 30 minutes. A green filter fitted over the bulb restricted illumination to ˜525 nm, a wavelength that excites Rose Bengal and causes it to release free radical species. The subsequent damage to endothelial cells in exposed portions of the cortical vasculature causes platelet aggregation, resulting in severe focal ischemia. […] Control animals were generated using the same surgical procedure but without photo-activation of Rose Bengal. Animals with strokes were randomly assigned to receive a continuous infusion of either saline (0.9%, Baxter Scientific; n=12), inosine (50 mM in saline, Sigma-Aldrich Co., St. Louis, Mo.; n=12), NEP1-40 (500 μM in 2.5% DMSO/97.5% saline; n=12), or inosine +NEP1-40 (n=12) into the cisterna magna using osmotic minipumps (0.25 μl/h, Alzet model 2004, Durect Corpora-tion, Palo Alto, Calif.). In addition to these, a separate set of animals with the same 4 groups (n=12 in each) was created for a long-term behavioral study. Because CSF drug concentrations presumably require several hours to achieve steady-state levels when delivered via slow-releasing osmotic pumps, all animals received a 25 μl intraventricular bolus of the appropriate agent prior to pump placement. Pumps were tucked between the shoulder blades and infusion needles were secured onto the cranium with a silicon-based glue. The incision was closed with silk sutures and cleaned with betadine and ethanol pads. For 72 hours following surgery, animals received twice-daily, subcu-taneous injections of Buprenex (buprenorphine; Reckitt Benkiser Pharmaceuticals Inc., Richmond, Va.) for pain management.
In animals in which both behavioral testing and anatomical tracing was performed, animals were tested at 7, 14, 21, and 28 days after surgery, whereas in the long-term behavioral study, minipumps were removed after 4 weeks and testing was continued weekly for another 4 weeks. All testing was done by an experimenter blind to the animals' treatments. A skilled forelimb-reaching task was used to test functional recovery after stroke. The task requires the rat to reach with either paw through a narrow slit in a Plexiglas box, grasp a banana-flavored food pellet (Bio-Serv, Inc., Frenchtown, N.J.) from a platform, and bring it successfully to the mouth (Allred and Jones, 2004; Luke et al., 2004). Three days prior to and during training, animals were maintained on a restricted diet of banana-flavored pellets to remove novelty-induced hesitation and to increase motivation. Rats were trained 30-60 minutes per day with each paw for two weeks or until they reached a baseline performance of 20-30 successful reaches in a two-minute period. At the end of the training period but prior to surgery, each animal was tested for the number of pellets it successfully grasped and ate in a two-minute trial, making certain that animals were motivated and stress-free. […]

[4] = layer 5 of undamaged hemisphere
[5] = layer 5 of undamaged hemisphere, vs saline

SMILES: OC[C@H]1O[C@@H](n2cnc3c(O)ncnc32)[C@H](O)[C@@H]1O [inosine]
- metallothionine positively staining profiles per field [1]: 17.9±0.8
- increase of number of metallothionine positively staining profiles per field ([1]; vs saline): 28%
- C1q average grain pixel density [1, 4]: 5654±894
- C3 average grain pixel density [1, 4]: 1377±101
- increase of C1q staining intensity [1, 5]: 75%
- increase of C3 staining intensity [1, 5]: 37%
- labeled CST axons in spinal grey matter ipsilateral to the labeled hemisphere [2]: 77.5±9.0 axons/mm
- food pellet retrieval with impaired paw, outcome in words ([3]; 4-week study): superior to that of controls at 1 week
- food pellet retrieval with impaired paw, outcome in words ([3]; eight-week (long-term) study): significantly better than that of saline-treated controls from week 2 on
- food pellet retrieval with impaired paw, outcome in words ([3]; eight-week (long-term) study, listed as Inosine): strongly enhanced the effect of NEP1-40
- food pellet retrieval with impaired paw, % of baseline ([3]; week eight (4 weeks after pump removal)): ~80%
- food pellet retrieval with impaired paw, % of baseline ([3]; week four): ~70%
- performance with the unaffected (unimpaired) paw ([3]; paw ipsilateral to the stroke): performed normally; also recorded: No differences were detected
- food pellet retrieval with impaired paw, percentage of baseline (pre-operative) level ([3]; week 4 after stroke, 4-week study): approximately 80%
